From patent publication US20200392150A1, “Diaryl-B-Lactam Compound and Preparation Method and Pharmaceutical Use Thereof” (Fudan University, priority 2016, published 2020) come the findings set out here.

Structures are written as SMILES. Read-outs that look alike come from different tables or passages of the source.

Experiment in all cases: In vitro cell growth inhibition assay (MTT)
Common to all, as to format: cell-based, human

One assay has as its system MDA-MB-231. To be noted: read-out: IC50 MDA-MB-231. Here is the method:
(§1) 5000 tumor cells per well were seeded into 96-well plate and allowed to adhere overnight. Cells were treated with various concentrations of tested compounds or DMSO (0.2%, as negative control) for 48 h. Then, the medium along with tested compounds or DMSO was discarded and […] per well MTT containing medium (0.5 mg/mL) was added. After incubation at 37° C. for 4 h, the MTT-containing medium was replaced by DMSO (150 μL per well) to dissolve the formazan crystals. Absorbance of the resulting solution was measured by microplate reader (Biotech ELx800) at 540 nm wavelength. Growth inhibition rates were calculated with the absorbance. Half maximal inhibitory concentration (IC50) of each compound was calculated using GraphPad Prism, version 6.0.

The next assay deals with SKOV3. To be noted: read-out: IC50 SKOV3. Here is the method: as §1
The next assay relates to A2780. Conditions: read-out: IC50 A2780. Here is the method: as §1
A further assay has as its system Hela. To be noted: 48 h, read-out: IC50 Hela. As to the method:
as §1

Setting [1] is: MDA-MB-231 human breast cancer cell line, 48 h, MTT.
[2] abbreviates: SK-OV-3, SKOV-3 human ovarian cancer cell line, 48 h, MTT.
The mark [3] stands for this setting: A2780 human ovarian cancer cell line, 48 h, MTT.
Where [4] appears, read: Hela human cervical cancer cell line, MTT.

Regarding `C=C1C(=O)N(c2cc(OC)c(OC)c(OC)c2)[C@H]1c1ccc(OC)c(OCCN(C)C)c1` [Compound 14, (S)-4-(3-(2-(dimethylamino)ethoxy)-4-methoxyphenyl)-3-methylene-1-(3,4,5-trimethoxyphenyl)azetidin-2-one], the IC50 (as a rule, the concentration that gives 50% inhibition) in the assay with MDA-MB-231 (Homo sapiens, MDA-MB-231, 48 h) was above 10000 nM; in the assay with SKOV3 (Homo sapiens, SK-OV-3, 48 h), above 10000 nM; in the assay on A2780 (Homo sapiens, A2780, 48 h) it was above 10000 nM; in the assay with Hela (Homo sapiens, HeLa), above 10000 nM.

Regarding `C=C1C(=O)N(c2cc(OC)c(OC)c(OC)c2)[C@H]1c1ccc(OC)c(OCC(N)=O)c1` [Compound 16, (S)-2-(2-methoxy-5-(3-methylene-4-oxo-1-(3,4,5-trimethoxyphenyl)azetidin-2-yl)phenoxy)acetamide], the IC50 in the assay with MDA-MB-231 (setting [1]) came to 503 nM; in the assay on SKOV3 (setting [2]), 698 nM; with A2780 (setting [3]), 316 nM; with Hela (setting [4]), 818 nM.

As for `C=C1C(=O)N(c2cc(OC)c(OC)c(OC)c2)[C@H]1c1ccc(OC)c(OCCCNC(=O)OCc2ccccc2)c1` [Compound 17, (S)-benzyl (3-(2-methoxy-5-(3-methylene-4-oxo-1-(3,4,5-trimethoxyphenyl)azetidin-2-yl)phenoxy)propyl)carbamate], the IC50 in the assay with MDA-MB-231 (setting [1]), in the assay with SKOV3 (setting [2]), in the assay on A2780 (setting [3]) and in the assay on Hela (setting [4]) was above 10000 nM each time.

Take `C=C1C(=O)N(c2cc(OC)c(OC)c(OC)c2)[C@H]1c1ccc(OC)c(OC(=O)c2ccccc2OC)c1` [Compound 21, (S)-2-methoxy-5-(3-methylene-4-oxo-1-(3,4,5-trimethoxyphenyl)azetidin-2-yl)phenyl 2-methoxybenzoate]: the IC50 was found to be 218 nM in the assay with MDA-MB-231 (setting [1]), 155 nM with SKOV3 (setting [2]), 201 nM in the assay with A2780 (setting [3]) and 106 nM in the assay with Hela (setting [4]).

`C=C1C(=O)N(c2cc(OC)c(OC)c(OC)c2)[C@H]1c1ccc(OC)c(OS(=O)(=O)c2ccc(C)cc2)c1` [Compound 27, (S)-2-methoxy-5-(3-methylene-4-oxo-1-(3,4,5-trimethoxyphenyl)azetidin-2-yl)phenyl 4-methylbenzenesulfonate]: the IC50 with MDA-MB-231 (setting [1]) was 12800 nM; in the assay on SKOV3 (setting [2]) it was 12100 nM; with A2780 (setting [3]), 6670 nM; with Hela (setting [4]), 17800 nM.

In the case of `C=C1C(=O)N(c2cc(OC)c(OC)c(OC)c2)[C@H]1c1ccc(OC)c(OS(=O)(=O)c2ccc(NC(C)=O)cc2)c1` [Compound 30, (S)-2-methoxy-5-(3-methylene-4-oxo-1-(3,4,5-trimethoxyphenyl)azetidin-2-yl)phenyl 4-acetamidobenzenesulfonate], the IC50 stood at 15800 nM in the assay on MDA-MB-231 (setting [1]), 12000 nM with SKOV3 (setting [2]), 12200 nM with A2780 (setting [3]) and 15900 nM in the assay with Hela (setting [4]).

Consider `C=C1C(=O)N(c2cc(OC)c(OC)c(OC)c2)[C@H]1c1ccc(OC)c(OS(=O)(=O)Cc2ccccc2)c1` [Compound 32, (S)-2-methoxy-5-(3-methylene-4-oxo-1-(3,4,5-trimethoxyphenyl)azetidin-2-yl)phenyl phenylmethanesulfonate], for which the half-maximal inhibitory concentration (IC50) was above 20000 nM with MDA-MB-231 (setting [1]), 8660 nM with SKOV3 (setting [2]), 7340 nM in the assay on A2780 (setting [3]) and above 20000 nM with Hela (setting [4]).

In the case of `C=C1C(=O)N(c2cc(OC)c(OC)c(OC)c2)[C@H]1c1ccc(OC)c(OS(=O)(=O)c2ccc(OC)c(OC)c2)c1` [Compound 33, (S)-2-methoxy-5-(3-methylene-4-oxo-1-(3,4,5-trimethoxyphenyl)azetidin-2-yl)phenyl 3,4-dimethoxybenzenesulfonate], the IC50 in the assay on MDA-MB-231 (setting [1]) stood at 13400 nM; in the assay with SKOV3 (setting [2]), 15200 nM; with A2780 (setting [3]) it was 12300 nM; in the assay with Hela (setting [4]), 12300 nM.

As to `C=C1C(=O)N(c2cc(OC)c(OC)c(OC)c2)[C@H]1c1ccc(OC)c(OC(=O)[C@H](C)NC(=O)OC(C)(C)C)c1` [Compound 35, (S)-2-methoxy-5-((S)-3-methylene-4-oxo-1-(3,4,5-trimethoxyphenyl)azetidin-2-yl)phenyl 2-((tert-butoxycarbonyl)amino)propanoate], the half-inhibitory concentration (IC50) in the assay on MDA-MB-231 (setting [1]) is 496 nM; with SKOV3 (setting [2]), 252 nM; with A2780 (setting [3]), 496 nM; in the assay with Hela (setting [4]) it was 106 nM.

With `C=C1C(=O)N(c2cc(OC)c(OC)c(OC)c2)[C@H]1c1ccc(OC)c(OC(=O)[C@@H](NC(=O)OC(C)(C)C)C(C)C)c1` [Compound 36, (S)-2-methoxy-5-((S)-3-methylene-4-oxo-1-(3,4,5-trimethoxyphenyl)azetidin-2-yl)phenyl 2-((tert-butoxycarbonyl)amino)-3-methylbutanoate], the IC50 in the assay with MDA-MB-231 (setting [1]) is 506 nM; in the assay on SKOV3 (setting [2]), 496 nM; in the assay on A2780 (setting [3]), 505 nM; in the assay on Hela (setting [4]) it was 501 nM.

On to `C=C1C(=O)N(c2cc(OC)c(OC)c(OC)c2)[C@H]1c1ccc(OC)c(OP(=O)(OCc2ccccc2)OCc2ccccc2)c1` [Compound 37, (S)-dibenzyl (2-methoxy-5-(3-methylene-4-oxo-1-(3,4,5-trimethoxyphenyl)azetidin-2-yl)phenyl) phosphate], for which the IC50 with MDA-MB-231 (setting [1]), in the assay with SKOV3 (setting [2]), in the assay with A2780 (setting [3]) and in the assay on Hela (setting [4]) was above 20000 nM in each case.

On to `C=C1C(=O)N(c2cc(OC)c(OC)c(OC)c2)[C@H]1c1ccc(OC)c(F)c1` [Compound 38, (S)-4-(3-fluoro-4-methoxyphenyl)-3-methylene-1-(3,4,5-trimethoxyphenyl)azetidin-2-one], for which the half-inhibitory concentration (IC50) came out at 111 nM in the assay with MDA-MB-231 (setting [1]), 134 nM in the assay with SKOV3 (setting [2]), 121 nM in the assay on A2780 (setting [3]) and 131 nM with Hela (setting [4]).

As for `C=C1C(=O)N(c2cc(OC)c(OC)c(OC)c2)[C@H]1c1ccc(OC)c(N)c1` [Compound 41, (S)-4-(3-amino-4-methoxyphenyl)-3-methylene-1-(3,4,5-trimethoxyphenyl)azetidin-2-one], the IC50 in the assay with MDA-MB-231 (setting [1]) came to 40 nM; in the assay on SKOV3 (setting [2]), 36 nM; in the assay with A2780 (setting [3]) it was 31 nM; in the assay with Hela (setting [4]) it was 32 nM.

In the case of `C=C1C(=O)N(c2cc(OC)cc(OC)c2)[C@H]1c1ccc(OC)c(O)c1` [Compound 49, (S)-1-(3,5-dimethoxyphenyl)-4-(3-hydroxy-4-methoxyphenyl)-3-methyleneazetidin-2-one], the half-maximal inhibitory concentration (IC50) with MDA-MB-231 (setting [1]) was 125 nM; in the assay with SKOV3 (setting [2]), 175 nM; in the assay on A2780 (setting [3]), 112 nM; with Hela (setting [4]), 295 nM.

For the compound `C=C1C(=O)N(c2ccc(OC)cc2OC)[C@H]1c1ccc(OC)c(O)c1` [Compound 50, (S)-1-(2,4-dimethoxyphenyl)-4-(3-hydroxy-4-methoxyphenyl)-3-methyleneazetidin-2-one], the concentration for half-maximal inhibition (IC50) in the assay with MDA-MB-231 (setting [1]) came out at 291 nM; in the assay on SKOV3 (setting [2]), 513 nM; with A2780 (setting [3]), 234 nM; in the assay with Hela (setting [4]), 894 nM.

On to `COc1ccc([C@H]2/C(=C\C[Si](C)(C)C)C(=O)N2c2cc(OC)c(OC)c(OC)c2)cc1O` [Compound 54, (S,E)-4-(3-hydroxy-4-methoxyphenyl)-1-(3,4,5-trimethoxyphenyl)-3-(2-(trimethylsilyl)ethylidene)azetidin-2-one], for which the 50% inhibitory concentration (IC50) with MDA-MB-231 (setting [1]), in the assay with SKOV3 (setting [2]), in the assay on A2780 (setting [3]) and in the assay with Hela (setting [4]) was above 10000 nM each time.

Take `COc1ccc([C@H]2/C(=C/c3ccccc3)C(=O)N2c2cc(OC)c(OC)c(OC)c2)cc1O` [Compound 57, (S,Z)-3-benzylidene-4-(3-hydroxy-4-methoxyphenyl)-1-(3,4,5-trimethoxyphenyl)azetidin-2-one]: the IC50 in the assay on MDA-MB-231 (setting [1]) is 3160 nM; in the assay on SKOV3 (setting [2]), 2990 nM; with A2780 (setting [3]) it was 2540 nM; in the assay with Hela (setting [4]), 4730 nM.

Take `COc1ccc([C@H]2/C(=C/c3ccc(C(C)(C)C)cc3)C(=O)N2c2cc(OC)c(OC)c(OC)c2)cc1O` [Compound 58, (S,Z)-3-(4-(tert-butyl)benzylidene)-4-(3-hydroxy-4-methoxyphenyl)-1-(3,4,5-trimethoxyphenyl)azetidin-2-one]: the IC50 with MDA-MB-231 (setting [1]), in the assay with SKOV3 (setting [2]), with A2780 (setting [3]) and in the assay on Hela (setting [4]) was above 20000 nM throughout.

As for `COc1ccc([C@H]2[C@@H](CC[Si](C)(C)C)C(=O)N2c2cc(OC)c(OC)c(OC)c2)cc1O` [Compound 59, (3R,4R)-4-(3-hydroxy-4-methoxyphenyl)-1-(3,4,5-trimethoxyphenyl)-3-(2-(trimethylsilyl)ethyl)azetidin-2-one], the IC50 in the assay on MDA-MB-231 (setting [1]) was found to be 6440 nM; in the assay on SKOV3 (setting [2]), 5630 nM; in the assay with A2780 (setting [3]) it was 7540 nM; with Hela (setting [4]), 9140 nM.

On to `COc1ccc([C@H]2[C@H](n3cc(CO)nn3)C(=O)N2c2cc(OC)c(OC)c(OC)c2)cc1O` [Compound 61, (3S,4S)-4-(3-hydroxy-4-methoxyphenyl)-3-(4-(hydroxymethyl)-1H-1,2,3-triazol-1-yl)-1-(3,4,5-trimethoxyphenyl)azetidin-2-one], for which the IC50 worked out at 28 nM in the assay with MDA-MB-231 (setting [1]), 83 nM in the assay on SKOV3 (setting [2]), 15 nM in the assay with A2780 (setting [3]) and 33 nM in the assay with Hela (setting [4]).

Take `COc1ccc([C@H]2[C@@H](CN(C)C)C(=O)N2c2cc(OC)c(OC)c(OC)c2)cc1O` [Compound 62, (3R,4R)-3-((dimethylamino)methyl)-4-(3-hydroxy-4-methoxyphenyl)-1-(3,4,5-trimethoxyphenyl)azetidin-2-one]: the 50% inhibitory concentration (IC50) in the assay with MDA-MB-231 (setting [1]) is above 20000 nM; with SKOV3 (setting [2]), above 20000 nM; with A2780 (setting [3]), 7720 nM; with Hela (setting [4]), above 20000 nM.
